Here are results for 37 molecules from patent publication US7732604B2, “Triazolopyrazine derivatives” (Pfizer Inc., priority 2006, dated 2010).

Counter-ions that a name gives are not always drawn.

The target of the first assay is T1, HGFR (Homo sapiens, UniProt P08581).
T1 construct: purchased Upstate 14-526
T1 sequence (P08581 974-1390 limits assumed): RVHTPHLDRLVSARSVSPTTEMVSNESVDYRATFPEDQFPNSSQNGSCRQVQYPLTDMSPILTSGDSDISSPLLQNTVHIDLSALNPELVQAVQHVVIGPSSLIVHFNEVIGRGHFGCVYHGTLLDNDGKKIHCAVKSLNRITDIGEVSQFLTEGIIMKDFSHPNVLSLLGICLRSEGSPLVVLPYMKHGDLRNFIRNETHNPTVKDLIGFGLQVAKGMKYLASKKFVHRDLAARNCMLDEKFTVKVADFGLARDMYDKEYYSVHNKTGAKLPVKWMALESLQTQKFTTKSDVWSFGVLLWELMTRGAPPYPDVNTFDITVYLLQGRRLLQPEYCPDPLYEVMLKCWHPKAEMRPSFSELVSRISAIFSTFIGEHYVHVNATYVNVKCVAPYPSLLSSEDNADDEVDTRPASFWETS
Nature of the assay: HGFR continuous-coupled spectrophotometric assay (tyrosine kinase activity on Met-2 substrate peptide). Particulars: HGFR 50 nM, Met-2 peptide 0.5 mM, ATP 300 μM, 37° C., absorbance 340 nm; read-out: Ki. The assay is classed as biochemical.
`O=C1CCN(c2cnc3nnn(Cc4ccc5ncccc5c4)c3n2)CCN1` [Example 79, 1-[1-(quinolin-6-yl-methyl)-1H-[1,2,3]tri-azolo[4,5-b]py-razin-6-yl]-14-di-azepan-5-one]: the Ki (as a rule, the equilibrium dissociation constant of an inhibitor or competing ligand from its target) was determined as 11 nM.
Regarding `FC1CCN(C2CCN(c3cnc4nnn(Cc5ccc6ncccc6c5)c4n3)C2)CC1` (stereo not shown) [Example 191, 6-({6-[3-(4-fluoro-piperidin-1-yl)pyrro-lidin-1-yl]-1H-[1,2,3]tri-azolo[4,5-b]pyra-zin-1-yl}methyl)quinoline], the inhibitory constant (Ki) turned out to be 142 nM.
In the case of `CCOC(=O)c1cnn(-c2cnc3nnn(Cc4ccc5ncccc5c4)c3n2)c1` [Example 14, ethyl 1-(3-(quinolin-6-ylmethyl)-3H-[1,2,3]triazolo[4,5-b]pyrazin-5-yl)-1H-pyrazole-4-carboxylate], the Ki worked out at 40 nM.
As for `CC1(CNc2cnc3nnn(Cc4ccc5ncccc5c4)c3n2)COC1` [Example 130, N-[(3-methyl-oxetan-3-yl)meth-yl]-1-(quino-lin-6-yl-methyl)-1H-[1,2,3]tri-azolo[4,5-b]pyra-zin-6-amine], the Ki came to 7 nM.
Still for that read-out and setting: under `CCCCOc1cnc2nnn(Cc3ccc4ncccc4c3)c2n1` [Example 161, 6-[(6-butoxy-1H-[1,2,3]tri-azolo[4,5-b]pyra-zin-1-yl)meth-yl]quinoline] stands 14 nM.
The same measure, in the same setting: under `c1cnc2ccc(Cn3nnc4ncc(N5CCc6[nH]ncc6C5)nc43)cc2c1` [Example 98, 6-{[6-(1,4,6,7-tetra-hydro-5H-pyra-zolo[4,3-c]pyri-din-5-yl)-1H-[1,2,3]tri-azolo[4,5-b]pyra-zin-1-yl]meth-yl}quinoline] stands 13 nM.
The same measure, in the same setting: under `CC(C)(C)OC(=O)N[C@@H]1CCCN(c2cnc3nnn(Cc4ccc5ncccc5c4)c3n2)C1` [Example 202, (R)-tert-butyl 1-(3-(quino-lin-6-yl-methyl)-3H-[1,2,3]tri-azolo[4,5-b]pyra-zin-5-yl)pipe-ridin-3-ylcarbamate] stands 620 nM; under `CC(C)(N)CNc1cnc2nnn(Cc3ccc4ncccc4c3)c2n1` [Example 141, 2-methyl-N~1~-[1-(quino-lin-6-yl-methyl)-1H-[1,2,3]tri-azolo[4,5-b]pyra-zin-6-yl]pro-pane-1,2-diamine], 6 nM; under `OC[C@@H]1C[C@H]1CNc1cnc2nnn(Cc3ccc4ncccc4c3)c2n1` [Example 127, [(1R,2R)-2-({[1-(quino-lin-6-yl-methyl)-1H-[1,2,3]tri-azolo[4,5-b]pyra-zin-6-yl]ami-no}methyl)cyclo-propyl]methanol], 40 nM.
Turning to `CN(C)CCNC(=O)c1ccc(-c2cnc3nnn(Cc4ccc5ncccc5c4)c3n2)cc1` [Example 13, N-(2-(dimethylamino)ethyl)-4-(3-(quinolin-6-ylmethyl)-3H-[1,2,3]triazolo[4,5-b]pyrazin-5-yl)benzamide], the Ki turned out to be 3 nM.
On the same count and under the same terms, next, `OC1CCN(C2CCN(c3cnc4nnn(Cc5ccc6ncccc6c5)c4n3)C2)CC1` (stereo in doubt) [Example 170, 1-[(3R)-1-[1-(quino-lin-6-yl-methyl)-1H-[1,2,3]tri-azolo[4,5-b]pyra-zin-6-yl]pyrro-lidin-3-yl}pipe-ridin-4-ol]: 21 nM; `N[C@@H]1CCCN(c2cnc3nnn(Cc4ccc5ncccc5c4)c3n2)C1` [Example 31, (R)-1-(3-(quinolin-6-ylmethyl)-3H-[1,2,3]triazolo[4,5-b]pyrazin-5-yl)piperidin-3-amine dihydrochloride]: 59 nM.
`CC(CO)Nc1cnc2nnn(Cc3ccc4ncccc4c3)c2n1` (stereo in doubt) [Example 120, (2R)-2-{[1-(quino-lin-6-yl-methyl)-1H-[1,2,3]tri-azolo[4,5-b]pyra-zin-6-yl]ami-no}propan-1-ol]: the Ki amounted to 41 nM.
Still for that read-out and setting: next, `N[C@H]1CCCN(c2cnc3nnn(Cc4ccc5ncccc5c4)c3n2)C1` [Example 32, (S)-1-(3-(quinolin-6-ylmethyl)-3H-[1,2,3]triazolo[4,5-b]pyrazin-5-yl)piperidin-3-amine dihydrochloride]: 69 nM; `c1cnc2ccc(Cn3nnc4ncc(NC5CCOC5)nc43)cc2c1` (stereo not shown) [Example 123, 1-(quinolin-6-yl-methyl)-N-(tetra-hydrofuran-3-yl)-1H-[1,2,3]tri-azolo[4,5-b]pyra-zin-6-amine]: 8 nM; `CC1C(=O)NCCN1c1cnc2nnn(Cc3ccc4ncccc4c3)c2n1` (stereo not shown) [Example 75, 3-methyl-4-[1-(quino-lin-6-yl-methyl)-1H-[1,2,3]tri-azolo[4,5-b]py-razin-6-yl]pipe-razin-2-one]: 23 nM.
For the molecule `CN1CCN(c2cnc3nnn(Cc4ccc5ncccc5c4)c3n2)CC1=O` [Example 89, 1-methyl-4-[1-(quino-lin-6-yl-methyl)-1H-[1,2,3]tri-azolo[4,5-b]pyra-zin-6-yl]pipe-razin-2-one], the Ki was 41 nM.
Same read-out and setting: under `CC1(O)CCN(c2cnc3nnn(Cc4ccc5ncccc5c4)c3n2)CC1` [Example 101, 4-methyl-1-[1-(quino-lin-6-yl-methyl)-1H-[1,2,3]tri-azolo[4,5-b]pyra-zin-6-yl]piperidin-4-ol] stands 23 nM; under `Fc1cc2ncccc2cc1Cn1nnc2ncc(N3CC[C@@H](N4CCOCC4)C3)nc21` [Example 171, 7-fluoro-6-({6-[(3R)-3-morpho-lin-4-yl-pyrrolidin-1-yl]-1H-[1,2,3]tri-azolo[4,5-b]pyra-zin-1-yl}meth-yl)quinoline], 10 nM; under `CNC(=O)c1cccc(-c2cnc3nnn(Cc4ccc5ncccc5c4)c3n2)c1` [Example 18, N-methyl-3-(3-(quinolin-6-ylmethyl)-3H-[1,2,3]triazolo[4,5-b]pyrazin-5-yl)benzamide], 5 nM.
Same read-out and setting: next, `N[C@@H]1CCN(c2cnc3nnn(Cc4ccc5c(c4)CCO5)c3n2)C1` [Example 42, (R)-1-[3-(2,3-Dihydro-benzofuran-5-ylmethyl)-3H-[1,2,3]triazolo[4,5-b]pyrazin-5-yl]-pyrrolidin-3-ylamine]: 80 nM.
Turning to `c1cnc2ccc(Cn3nnc4ncc(NC5CCOCC5)nc43)cc2c1` [Example 143, 1-(quinolin-6-yl-methyl)-N-(tetra-hydro-2H-py-ran-4-yl)-1H-[1,2,3]tri-azolo[4,5-b]py-razin-6-amine], the Ki is 9 nM.
For the molecule `O[C@@H]1COC[C@H]1Nc1cnc2nnn(Cc3ccc4ncccc4c3)c2n1` [Example 131, (3S4R)-4-{[1-(quino-lin-6-yl-methyl)-1H-[123]tri-azolo[45-b]pyra-zin-6-yl]ami-no}tetrahydro-furan-3-ol], the Ki turned out to be 54 nM.
Same read-out and setting: under `Cn1nc(C(F)(F)F)cc1-c1cnc2nnn(Cc3ccc4ncccc4c3)c2n1` [Example 64, 6-[6-(2-Methyl-5-trifluoromethyl-2H-pyrazol-3-yl)-[1,2,3]triazolo[4,5-b]pyrazin-1-ylmethyl]-quinoline] stands 4 nM; under `CCc1noc(C2CCN(c3cnc4nnn(Cc5ccc6ncccc6c5)c4n3)CC2)n1` [Example 102, 6-({6-[4-(3-eth-yl-124-oxa-diazol-5-yl)pipe-ridin-1-yl]-1H-[1,2,3]tri-azolo[4,5-b]pyra-zin-1-yl}meth-yl)quinoline], 24 nM; under `CC(O)CNc1cnc2nnn(Cc3ccc4ncccc4c3)c2n1` (stereo not shown) [Example 175, 1-{[1-(quinolin-6-yl-methyl)-1H-[1,2,3]tri-azolo[4,5-b]pyra-zin-6-yl]ami-no}propan-2-ol], 8 nM.
On the same count and under the same terms, under `CCC(CO)Nc1cnc2nnn(Cc3ccc4ncccc4c3)c2n1` (stereo not shown) [Example 112, 2-{[1-(quinolin-6-yl-methyl)-1H-[1,2,3]tri-azolo[4,5-b]pyra-zin-6-yl]ami-no}butan-1-ol] stands 29 nM; under `NCCn1cc(-c2cnc3nnn(Cc4ccc5ncccc5c4)c3n2)cn1` [Example 2, 2-(4-(3-(quinolin-6-ylmethyl)-3H-[1,2,3]triazolo[4,5-b]pyrazin-5-yl)-1H-pyrazol-1-yl)ethanamine], 11 nM.
The same measure, in the same setting: under `O=C(c1ccc(-c2cnc3nnn(Cc4ccc5ncccc5c4)c3n2)cc1)N1CCOCC1` [Example 17, morpholino(4-(3-(quinolin-6-ylmethyl)-3H-[1,2,3]triazolo[4,5-b]pyrazin-5-yl)phenyl)-methanone] stands 46 nM.
As for `NC(=O)C1(N)CCN(c2cnc3nnn(Cc4ccc5ncccc5c4)c3n2)C1` (stereo not shown) [Example 189], the Ki came to 187 nM.
The same measure, in the same setting: next, `O=C(O)c1cnc2nnn(Cc3ccc4ncccc4c3)c2n1` [Example 194, 1-(quinolin-6-yl-methyl)-1H-[1,2,3]tri-azolo[4,5-b]pyra-zine-6-carboxylic acid]: 811 nM; `COC(=O)c1cnc2nnn(Cc3ccc4ncccc4c3)c2n1` [Example 196, methyl 1-(quino-lin-6-yl-methyl)-1H-[1,2,3]tri-azolo[4,5-b]pyra-zine-6-carboxylate]: 174 nM.
The same measure, in the same setting: under `CNc1cnc2nnn(Cc3ccc4ncccc4c3)c2n1` [Example 57, Methyl-(3-quinolin-6-ylmethyl-3H-[1,2,3]triazolo[4,5-b]pyrazin-5-yl)-amine] stands 11 nM.
On the same count and under the same terms, under `c1cnc2ccc(Cn3nnc4ncc(-n5cccn5)nc43)cc2c1` [Example 22, 6-((6-(1H-pyrazol-1-yl)-1H-[1,2,3]triazolo[4,5-b]pyrazin-1-yl)methyl)-quinoline] stands 12 nM; under `CC(c1ccc2ncccc2c1)n1nnc2ncc(Br)nc21` (stereo in doubt) [Example 212, 6-[(S)-1-(6-Bromo-[1,2,3]triazolo [4,5-b]pyrazin-1-yl)-ethyl]-quinoline], 42 nM.
Turning to `OCCn1cc(-c2cnc3nnn(Cc4ccc5ncncc5c4)c3n2)cn1` [Example 219, 2-[4-(3-Quinazolin-6-ylmethyl-3H-[1,2,3]triazolo[4,5-b]pyrazin-5-yl)-pyrazol-1-yl]-ethanol], the Ki came out at 61 nM.

Still in this assay, the particulars now being: Ki, HGFR 50 nM, Met-2 peptide 0.5 mM, ATP 300 μM, 37° C., absorbance 340 nm.
`c1cnc2ccc(Cn3nnc4ncc(N5CCc6nc[nH]c6C5)nc43)cc2c1` [Example 100, 6-{[6-(3,4,6,7-tetra-hydro-5H-imi-dazo[4,5-c]pyri-din-5-yl)-1H-[1,2,3]tri-azolo[4,5-b]pyra-zin-1-yl]meth-yl}quinoline] gave a Ki of 37 nM.
